Source: patent publication US8962615B2, “Cell migration modulating compounds” (University of Dundee, priority 2005, dated 2015)

System: human skin fibroblasts
Assay: migration of human skin fibroblasts in the 3D collagen gel assay
Assay type: cell-based
Settings: relative to control fibroblasts in the absence of test compound, FIG. 3
Source text: The results were plotted and are shown on the graph depicted in FIG. 3 in which compound (IV) is referred to as BDP 1. The data are expressed as fold-stimulation of migration relative to control fibroblasts in the absence of test compound. The range of base-line (control) migration is indicated by the horizontal dotted lines.

SMILES: COC(=O)CC1Nc2c(cccc2OCCC(C)C)CN(C)C1=O (stereo not shown) [Compound (IV)]
- fold-stimulation of migration relative to control fibroblasts: stimulated target cell migration with a bell-shaped dose-response similar in potency and profile to that of IGDS
